{
  "source": "paper PMC8909834",
  "about": "“An Orally Bioavailable and Highly Efficacious Inhibitor of CDK9/FLT3 for the Treatment of Acute Myeloid Leukemia” (Cancers, 2022)",
  "test_in_all_cases": "Kinase Hotspot radiolabel assay",
  "type_in_all_cases": "biochemical",
  "details_in_all_cases": "read-out: % Residual Activity",
  "key": {"Aurora A": {"target": "T1, Aurora A (Homo sapiens, UniProt O14965)", "T1 construct": "purchased Reaction Biology Corporation (Kinase HotSpot)", "method_in_brief": "(§1)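 Step one: screen at 1 µM across 369 kinases (Hotspot, radiolabel detection). Step two: Ki determination for kinases with >90% inhibition.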"}, "CAMK1g": {"target": "T2, CAMK1g (Homo sapiens, UniProt Q96NX5)", "T2 construct": "purchased Reaction Biology Corporation (Kinase HotSpot)", "method_in_brief": "as §1"}, "CDK1/cyclin B": {"target": "T3, CDK1/cyclin B (Homo sapiens, UniProt P06493)", "T3 construct": "purchased Reaction Biology Corporation (Kinase HotSpot)", "method_in_brief": "as §1"}, "CDK1/cyclin E": {"target": "T4, CDK1/cyclin E (Homo sapiens, UniProt P06493)", "T4 construct": "purchased Reaction Biology Corporation (Kinase HotSpot)", "method_in_brief": "as §1"}, "CK1g1": {"target": "T5, CK1g1 (Homo sapiens, UniProt Q9HCP0)", "T5 construct": "purchased Reaction Biology Corporation (Kinase HotSpot)", "method_in_brief": "as §1"}, "CLK1": {"target": "T6, CLK1 (Homo sapiens, UniProt P49759)", "T6 construct": "purchased Reaction Biology Corporation (Kinase HotSpot)", "T6 sequence (P49759 whole entry)": "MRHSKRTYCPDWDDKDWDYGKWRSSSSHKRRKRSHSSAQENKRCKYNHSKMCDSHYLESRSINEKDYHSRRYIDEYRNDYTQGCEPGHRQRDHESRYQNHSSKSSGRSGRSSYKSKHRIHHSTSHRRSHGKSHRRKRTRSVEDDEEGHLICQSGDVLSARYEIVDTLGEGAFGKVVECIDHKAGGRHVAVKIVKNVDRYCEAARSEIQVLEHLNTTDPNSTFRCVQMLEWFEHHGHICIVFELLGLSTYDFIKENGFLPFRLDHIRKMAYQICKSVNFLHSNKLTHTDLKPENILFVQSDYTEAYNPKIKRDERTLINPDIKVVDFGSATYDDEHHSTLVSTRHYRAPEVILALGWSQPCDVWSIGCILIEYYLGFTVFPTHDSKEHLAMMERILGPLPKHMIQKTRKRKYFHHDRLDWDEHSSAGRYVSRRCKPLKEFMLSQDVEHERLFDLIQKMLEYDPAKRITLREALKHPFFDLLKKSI", "method_in_brief": "as §1"}, "EPHA3": {"target": "T7, EPHA3 (Homo sapiens, UniProt P29320)", "T7 construct": "purchased Reaction Biology Corporation (Kinase HotSpot)", "T7 sequence (P29320 21-983)": "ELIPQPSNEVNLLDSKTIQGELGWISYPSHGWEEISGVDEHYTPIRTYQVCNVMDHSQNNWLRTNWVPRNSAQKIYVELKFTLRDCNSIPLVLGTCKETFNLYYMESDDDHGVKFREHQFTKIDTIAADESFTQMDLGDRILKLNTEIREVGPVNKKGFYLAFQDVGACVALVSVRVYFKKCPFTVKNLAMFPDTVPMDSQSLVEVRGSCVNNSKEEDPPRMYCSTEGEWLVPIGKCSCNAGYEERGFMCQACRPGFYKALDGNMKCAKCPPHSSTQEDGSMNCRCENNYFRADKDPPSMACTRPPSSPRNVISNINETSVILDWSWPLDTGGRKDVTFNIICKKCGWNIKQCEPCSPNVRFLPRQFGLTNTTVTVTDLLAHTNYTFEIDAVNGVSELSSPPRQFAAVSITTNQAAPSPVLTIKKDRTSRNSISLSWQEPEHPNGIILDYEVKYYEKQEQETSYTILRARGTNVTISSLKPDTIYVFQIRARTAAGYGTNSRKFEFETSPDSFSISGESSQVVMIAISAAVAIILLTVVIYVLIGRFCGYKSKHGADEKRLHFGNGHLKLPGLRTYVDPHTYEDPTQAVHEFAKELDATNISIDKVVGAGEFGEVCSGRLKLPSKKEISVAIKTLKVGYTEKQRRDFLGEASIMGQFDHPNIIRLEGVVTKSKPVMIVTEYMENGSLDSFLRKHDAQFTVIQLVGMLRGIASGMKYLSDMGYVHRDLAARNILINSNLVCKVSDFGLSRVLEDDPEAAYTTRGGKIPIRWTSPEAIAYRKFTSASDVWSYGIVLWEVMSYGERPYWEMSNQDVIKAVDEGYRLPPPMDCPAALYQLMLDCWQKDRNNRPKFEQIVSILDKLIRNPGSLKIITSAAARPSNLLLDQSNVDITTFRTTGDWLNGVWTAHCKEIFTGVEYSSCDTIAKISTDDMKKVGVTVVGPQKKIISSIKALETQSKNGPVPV", "method_in_brief": "as §1"}, "FMS": {"target": "T8, FMS (Homo sapiens, UniProt P07333)", "T8 construct": "purchased Reaction Biology Corporation (Kinase HotSpot)", "T8 sequence (P07333 20-972)": "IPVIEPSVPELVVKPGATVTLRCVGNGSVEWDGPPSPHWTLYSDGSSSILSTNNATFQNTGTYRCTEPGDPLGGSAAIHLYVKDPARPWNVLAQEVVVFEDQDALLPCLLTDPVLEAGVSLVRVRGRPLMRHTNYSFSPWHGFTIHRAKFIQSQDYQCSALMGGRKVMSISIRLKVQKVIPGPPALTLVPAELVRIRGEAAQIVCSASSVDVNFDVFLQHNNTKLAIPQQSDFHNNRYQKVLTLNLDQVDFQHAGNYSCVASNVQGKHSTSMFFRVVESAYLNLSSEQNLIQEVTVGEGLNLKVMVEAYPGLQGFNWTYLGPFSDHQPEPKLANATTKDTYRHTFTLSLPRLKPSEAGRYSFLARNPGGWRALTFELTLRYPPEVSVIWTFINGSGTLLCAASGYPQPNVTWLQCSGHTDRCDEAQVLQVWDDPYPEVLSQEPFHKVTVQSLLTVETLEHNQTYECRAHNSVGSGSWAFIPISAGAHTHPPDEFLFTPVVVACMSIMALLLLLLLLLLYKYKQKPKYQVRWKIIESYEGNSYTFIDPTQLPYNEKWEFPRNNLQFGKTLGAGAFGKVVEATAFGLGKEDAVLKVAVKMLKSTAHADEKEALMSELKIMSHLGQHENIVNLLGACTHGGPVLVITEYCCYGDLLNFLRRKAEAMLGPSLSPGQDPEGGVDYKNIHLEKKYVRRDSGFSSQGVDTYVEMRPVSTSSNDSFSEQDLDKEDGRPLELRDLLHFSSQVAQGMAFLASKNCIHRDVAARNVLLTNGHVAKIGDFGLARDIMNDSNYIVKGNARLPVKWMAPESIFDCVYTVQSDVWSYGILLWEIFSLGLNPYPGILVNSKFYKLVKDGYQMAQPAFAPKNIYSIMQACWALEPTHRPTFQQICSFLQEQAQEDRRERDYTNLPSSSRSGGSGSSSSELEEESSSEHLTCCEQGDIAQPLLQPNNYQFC", "method_in_brief": "as §1"}, "JAK2": {"target": "T9, JAK2 (Homo sapiens, UniProt O60674)", "T9 construct": "purchased Reaction Biology Corporation (Kinase HotSpot)", "method_in_brief": "as §1"}, "JNK3": {"target": "T10, JNK3 (Homo sapiens, UniProt P53779)", "T10 construct": "purchased Reaction Biology Corporation (Kinase HotSpot)", "T10 sequence (P53779 whole entry)": "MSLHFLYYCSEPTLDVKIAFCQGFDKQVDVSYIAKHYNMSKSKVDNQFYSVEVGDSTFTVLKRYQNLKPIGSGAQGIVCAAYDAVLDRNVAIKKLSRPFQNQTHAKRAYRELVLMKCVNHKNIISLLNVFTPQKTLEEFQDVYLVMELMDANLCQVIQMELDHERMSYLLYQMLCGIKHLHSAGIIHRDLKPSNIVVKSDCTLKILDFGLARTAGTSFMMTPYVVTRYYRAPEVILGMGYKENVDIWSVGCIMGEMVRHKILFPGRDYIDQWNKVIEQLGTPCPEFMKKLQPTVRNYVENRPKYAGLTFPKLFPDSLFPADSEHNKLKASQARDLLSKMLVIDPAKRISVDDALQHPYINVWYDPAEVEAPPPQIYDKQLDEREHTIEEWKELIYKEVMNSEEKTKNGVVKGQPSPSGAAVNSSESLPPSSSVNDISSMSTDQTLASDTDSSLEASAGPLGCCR", "method_in_brief": "as §1"}, "KHS/MAP4K5": {"target": "T11, KHS/MAP4K5 (Homo sapiens, UniProt Q9Y4K4)", "T11 construct": "purchased Reaction Biology Corporation (Kinase HotSpot)", "method_in_brief": "as §1"}, "KSR2": {"target": "T12, KSR2 (Homo sapiens, UniProt Q6VAB6)", "T12 construct": "purchased Reaction Biology Corporation (Kinase HotSpot)", "method_in_brief": "as §1"}, "MAPKAPK2": {"target": "T13, MAPKAPK2 (Homo sapiens, UniProt P49137)", "T13 construct": "purchased Reaction Biology Corporation (Kinase HotSpot)", "T13 sequence (P49137 whole entry)": "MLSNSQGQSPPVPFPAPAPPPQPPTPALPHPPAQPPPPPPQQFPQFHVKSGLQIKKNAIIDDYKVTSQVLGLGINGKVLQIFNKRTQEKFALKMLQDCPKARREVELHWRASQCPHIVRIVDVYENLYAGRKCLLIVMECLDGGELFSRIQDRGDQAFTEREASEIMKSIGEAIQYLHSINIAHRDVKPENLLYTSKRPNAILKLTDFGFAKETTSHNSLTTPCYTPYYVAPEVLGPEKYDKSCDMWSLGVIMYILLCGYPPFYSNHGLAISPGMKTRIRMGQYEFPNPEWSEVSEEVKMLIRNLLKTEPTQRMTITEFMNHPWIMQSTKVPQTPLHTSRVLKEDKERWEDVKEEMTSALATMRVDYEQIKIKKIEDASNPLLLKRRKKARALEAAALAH", "method_in_brief": "as §1"}, "MLK1/MAP3K9": {"target": "T14, MLK1/MAP3K9 (Homo sapiens, UniProt P80192)", "T14 construct": "purchased Reaction Biology Corporation (Kinase HotSpot)", "method_in_brief": "as §1"}, "NEK9": {"target": "T15, NEK9 (Homo sapiens, UniProt Q8TD19)", "T15 construct": "purchased Reaction Biology Corporation (Kinase HotSpot)", "T15 sequence (Q8TD19 whole entry)": "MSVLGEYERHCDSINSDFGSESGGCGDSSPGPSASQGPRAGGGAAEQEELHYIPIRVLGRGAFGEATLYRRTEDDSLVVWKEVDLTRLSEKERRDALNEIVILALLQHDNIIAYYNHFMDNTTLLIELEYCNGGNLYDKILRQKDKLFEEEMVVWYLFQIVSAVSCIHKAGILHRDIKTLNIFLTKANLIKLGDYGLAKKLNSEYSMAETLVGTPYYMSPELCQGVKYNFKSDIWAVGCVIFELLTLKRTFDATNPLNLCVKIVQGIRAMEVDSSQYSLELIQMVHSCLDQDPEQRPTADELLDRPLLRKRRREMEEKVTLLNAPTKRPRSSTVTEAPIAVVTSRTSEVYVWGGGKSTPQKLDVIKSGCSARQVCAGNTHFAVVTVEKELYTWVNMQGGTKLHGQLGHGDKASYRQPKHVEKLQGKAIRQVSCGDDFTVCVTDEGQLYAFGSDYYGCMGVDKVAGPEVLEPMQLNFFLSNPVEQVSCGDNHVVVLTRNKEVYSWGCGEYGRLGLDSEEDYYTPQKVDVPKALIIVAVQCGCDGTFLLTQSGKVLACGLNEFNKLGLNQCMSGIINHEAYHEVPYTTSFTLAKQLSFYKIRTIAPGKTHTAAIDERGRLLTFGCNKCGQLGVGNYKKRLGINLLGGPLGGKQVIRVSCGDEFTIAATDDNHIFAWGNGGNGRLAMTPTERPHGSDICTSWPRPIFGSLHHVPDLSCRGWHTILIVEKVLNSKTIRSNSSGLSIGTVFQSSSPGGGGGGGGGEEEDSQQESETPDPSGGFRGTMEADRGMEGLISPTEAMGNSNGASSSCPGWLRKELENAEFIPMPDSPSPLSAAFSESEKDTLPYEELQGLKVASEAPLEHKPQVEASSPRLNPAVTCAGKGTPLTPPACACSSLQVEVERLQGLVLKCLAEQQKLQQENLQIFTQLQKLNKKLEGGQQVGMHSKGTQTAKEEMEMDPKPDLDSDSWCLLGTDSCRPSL", "method_in_brief": "as §1"}, "P38b/MAPK11": {"target": "T16, P38b/MAPK11 (Homo sapiens, UniProt Q15759)", "T16 construct": "purchased Reaction Biology Corporation (Kinase HotSpot)", "method_in_brief": "as §1"}, "PBK/TOPK": {"target": "T17, PBK/TOPK (Homo sapiens, UniProt Q96KB5)", "T17 construct": "purchased Reaction Biology Corporation (Kinase HotSpot)", "method_in_brief": "as §1"}, "PKA": {"target": "T18, PKA (Homo sapiens, UniProt P17612)", "T18 construct": "purchased Reaction Biology Corporation (Kinase HotSpot)", "method_in_brief": "as §1"}, "PKCa": {"target": "T19, PKCa (Homo sapiens, UniProt P17252)", "T19 construct": "purchased Reaction Biology Corporation (Kinase HotSpot)", "method_in_brief": "as §1"}, "PKCg": {"target": "T20, PKCg (Homo sapiens, UniProt P05129)", "T20 construct": "purchased Reaction Biology Corporation (Kinase HotSpot)", "method_in_brief": "as §1"}, "PKG1b": {"target": "T21, PKG1b (Homo sapiens, UniProt Q13976)", "T21 construct": "purchased Reaction Biology Corporation (Kinase HotSpot)", "method_in_brief": "as §1"}, "SGK2": {"target": "T22, SGK2 (Homo sapiens, UniProt Q9HBY8)", "T22 construct": "purchased Reaction Biology Corporation (Kinase HotSpot)", "method_in_brief": "as §1"}, "STK16": {"target": "T23, STK16 (Homo sapiens, UniProt O75716)", "T23 construct": "purchased Reaction Biology Corporation (Kinase HotSpot)", "method_in_brief": "as §1"}, "STK32B/YANK2": {"target": "T24, STK32B/YANK2 (Homo sapiens, UniProt Q9NY57)", "T24 construct": "purchased Reaction Biology Corporation (Kinase HotSpot)", "method_in_brief": "as §1"}, "STK39/STLK3": {"target": "T25, STK39/STLK3 (Homo sapiens, UniProt Q9UEW8)", "T25 construct": "purchased Reaction Biology Corporation (Kinase HotSpot)", "method_in_brief": "as §1"}, "TRKC": {"target": "T26, TRKC (Homo sapiens, UniProt Q16288)", "T26 construct": "purchased Reaction Biology Corporation (contract assay)", "method_in_brief": "as §1"}, "WEE1": {"target": "T27, WEE1 (Homo sapiens, UniProt P30291)", "T27 construct": "purchased Reaction Biology Corporation (Kinase HotSpot)", "T27 sequence (P30291 whole entry)": "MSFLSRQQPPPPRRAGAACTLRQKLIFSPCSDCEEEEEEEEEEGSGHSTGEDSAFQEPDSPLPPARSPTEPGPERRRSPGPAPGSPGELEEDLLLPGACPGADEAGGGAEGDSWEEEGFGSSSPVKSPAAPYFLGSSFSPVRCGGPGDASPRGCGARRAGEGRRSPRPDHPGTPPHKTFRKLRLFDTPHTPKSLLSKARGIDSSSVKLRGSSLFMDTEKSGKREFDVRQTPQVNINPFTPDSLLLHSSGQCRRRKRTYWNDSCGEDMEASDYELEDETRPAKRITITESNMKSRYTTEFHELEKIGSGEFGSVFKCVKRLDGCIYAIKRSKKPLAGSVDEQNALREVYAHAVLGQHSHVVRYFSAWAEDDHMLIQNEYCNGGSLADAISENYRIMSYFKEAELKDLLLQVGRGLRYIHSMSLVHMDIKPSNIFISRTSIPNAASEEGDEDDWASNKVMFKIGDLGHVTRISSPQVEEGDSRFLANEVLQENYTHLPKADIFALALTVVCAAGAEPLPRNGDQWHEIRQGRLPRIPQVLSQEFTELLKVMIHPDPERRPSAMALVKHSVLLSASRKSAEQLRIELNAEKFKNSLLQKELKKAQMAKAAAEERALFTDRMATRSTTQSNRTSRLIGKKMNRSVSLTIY", "method_in_brief": "as §1"}, "WNK3": {"target": "T28, WNK3 (Homo sapiens, UniProt Q9BYP7)", "T28 construct": "purchased Reaction Biology Corporation (Kinase HotSpot)", "method_in_brief": "as §1"}, "c-Src": {"target": "T29, c-Src (Homo sapiens, UniProt P12931)", "T29 construct": "purchased Reaction Biology Corporation (Kinase HotSpot)", "method_in_brief": "as §1"}, "p70S6K/RPS6KB1": {"target": "T30, p70S6K/RPS6KB1 (Homo sapiens, UniProt P23443)", "T30 construct": "purchased Reaction Biology Corporation (Kinase HotSpot)", "method_in_brief": "as §1"}},
  "data": [
    {"smiles": "Cc1cnc(N[C@H]2CC[C@H](N)CC2)nc1-c1cnc2ccc(-c3ccccc3)cn12", "note": "[CDDD11-8]", "values": [
      {"measurement": "remaining activity at 1 µM", "setting": "Aurora A", "result": 79.3, "unit": "%"},
      {"measurement": "remaining activity at 1 µM", "setting": "CAMK1g", "result": 97.7, "unit": "%"},
      {"measurement": "remaining activity at 1 µM", "setting": "CDK1/cyclin B", "result": 69.5, "unit": "%"},
      {"measurement": "remaining activity at 1 µM", "setting": "CDK1/cyclin E", "result": 87.5, "unit": "%"},
      {"measurement": "remaining activity at 1 µM", "setting": "CK1g1", "result": 62.8, "unit": "%"},
      {"measurement": "remaining activity at 1 µM", "setting": "CLK1", "result": 28.9, "unit": "%"},
      {"measurement": "remaining activity at 1 µM", "setting": "EPHA3", "result": 94, "unit": "%"},
      {"measurement": "remaining activity at 1 µM", "setting": "FMS", "result": 73, "unit": "%"},
      {"measurement": "remaining activity at 1 µM", "setting": "JAK2", "result": 70, "unit": "%"},
      {"measurement": "remaining activity at 1 µM", "setting": "JNK3", "result": 81.3, "unit": "%"},
      {"measurement": "remaining activity at 1 µM", "setting": "KHS/MAP4K5", "result": 20.3, "unit": "%"},
      {"measurement": "remaining activity at 1 µM", "setting": "KSR2", "result": 101, "unit": "%"},
      {"measurement": "remaining activity at 1 µM", "setting": "MAPKAPK2", "result": 106, "unit": "%"},
      {"measurement": "remaining activity at 1 µM", "setting": "MLK1/MAP3K9", "result": 43, "unit": "%"},
      {"measurement": "remaining activity at 1 µM", "setting": "NEK9", "result": 84.7, "unit": "%"},
      {"measurement": "remaining activity at 1 µM", "setting": "P38b/MAPK11", "result": 98.4, "unit": "%"},
      {"measurement": "remaining activity at 1 µM", "setting": "PBK/TOPK", "result": 102, "unit": "%"},
      {"measurement": "remaining activity at 1 µM", "setting": "PKA", "result": 95.3, "unit": "%"},
      {"measurement": "remaining activity at 1 µM", "setting": "PKCa", "result": 76, "unit": "%"},
      {"measurement": "remaining activity at 1 µM", "setting": "PKCg", "result": 87.9, "unit": "%"},
      {"measurement": "remaining activity at 1 µM", "setting": "PKG1b", "result": 77.5, "unit": "%"},
      {"measurement": "remaining activity at 1 µM", "setting": "SGK2", "result": 113, "unit": "%"},
      {"measurement": "remaining activity at 1 µM", "setting": "STK16", "result": 75.2, "unit": "%"},
      {"measurement": "remaining activity at 1 µM", "setting": "STK32B/YANK2", "result": 96.7, "unit": "%"},
      {"measurement": "remaining activity at 1 µM", "setting": "STK39/STLK3", "result": 45.7, "unit": "%"},
      {"measurement": "remaining activity at 1 µM", "setting": "TRKC", "result": 1.95, "unit": "%"},
      {"measurement": "remaining activity at 1 µM", "setting": "WEE1", "result": 94.3, "unit": "%"},
      {"measurement": "remaining activity at 1 µM", "setting": "WNK3", "result": 84, "unit": "%"},
      {"measurement": "remaining activity at 1 µM", "setting": "c-Src", "result": 49.5, "unit": "%"},
      {"measurement": "remaining activity at 1 µM", "setting": "p70S6K/RPS6KB1", "result": 94.5, "unit": "%"}
    ]}
  ]
}
